From patent US9695155B2, “Herbicidal substituted pyrimidinyloxy benzene compounds” (E. I. DU PONT DE NEMOURS AND COMPANY, priority 2013, dated 2017)

Tests used:
giant foxtail [1] = assay: Test A postemergence; assay type: in vivo, Setaria faberii; settings: 0 to 100 scale where 0 is no effect and 100 is complete control; for Foxtail, Giant plant response rating: 125 g ai/ha; for Plant response rating, Foxtail, Giant: 500 g ai/ha
Procedure, shortened: (§1)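 Pre- and postemergence greenhouse screen. Soil: loam + sand. Spray carrier: solvent mixture, non-phytotoxic, with surfactant. Post timing at 1–2 leaves, height 2–10 cm. Readout: visual injury on a 0–100 scale roughly 10 days after application, untreated plants as reference.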

morningglory [2] = assay: Test A postemergence; assay type: in vivo, Ipomoea spp.; settings: 0 to 100 scale where 0 is no effect and 100 is complete control; for Morningglory plant response rating: 125 g ai/ha; for Plant response rating, Morningglory: 500 g ai/ha
Procedure, shortened: as §1

wheat [3] = assay: Test A postemergence; assay type: in vivo, Triticum aestivum; settings: 0 to 100 scale where 0 is no effect and 100 is complete control; for Wheat plant response rating: 125 g ai/ha; for Plant response rating, Wheat: 500 g ai/ha
Procedure, shortened: as §1

barnyardgrass [4] = assay: Test A postemergence; assay type: in vivo, Echinochloa crus-galli; settings: 0 to 100 scale where 0 is no effect and 100 is complete control; for Barnyardgrass plant response rating: 125 g ai/ha; for Plant response rating, Barnyardgrass: 500 g ai/ha
Procedure, shortened: as §1

velvetleaf [5] = assay: Test A postemergence; assay type: in vivo, Abutilon theophrasti; settings: 0 to 100 scale where 0 is no effect and 100 is complete control; for Velvetleaf plant response rating: 125 g ai/ha; for Plant response rating, Velvetleaf: 500 g ai/ha
Procedure, shortened: as §1

sedge, umbrella = assay: Test B flooded paddy test; assay type: in vivo, Cyperus difformis; settings: Flood, 250 g ai/ha; 0 to 100 scale where 0 is no effect and 100 is complete control
Procedure, shortened: (§2)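 Evaluation is visual, against untreated controls, 13 to 15 days after treatment. Before treatment, plants reached the 2-leaf stage; pots were then flooded 3 cm deep, compound was added to the water, and that level was maintained. Ratings run 0 to 100, with 100 meaning complete control.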

Heteranthera limosa = assay: Test B flooded paddy test; assay type: in vivo; settings: Flood, 250 g ai/ha; 0 to 100 scale where 0 is no effect and 100 is complete control
Procedure, shortened: as §2

giant foxtail [6] = assay: Test A preemergence; assay type: in vivo, Setaria faberii; settings: for Foxtail, Giant plant response rating (0 to 100 scale): 125 g ai/ha; for Foxtail, Giant plant response rating: 500 g ai/ha, 0 to 100 scale where 0 is no effect and 100 is complete control
Procedure, shortened: as §1

velvetleaf [7] = assay: Test A preemergence; assay type: in vivo, Abutilon theophrasti; settings: for Velvetleaf plant response rating (0 to 100 scale): 125 g ai/ha; for Velvetleaf plant response rating: 500 g ai/ha, 0 to 100 scale where 0 is no effect and 100 is complete control
Procedure, shortened: as §1

morningglory [8] = assay: Test A preemergence; assay type: in vivo, Ipomoea spp.; settings: for Morningglory plant response rating (0 to 100 scale): 125 g ai/ha; for Morningglory plant response rating: 500 g ai/ha, 0 to 100 scale where 0 is no effect and 100 is complete control
Procedure, shortened: as §1

rice = assay: Test B flooded paddy test; assay type: in vivo, Oryza sativa; settings: Flood, 250 g ai/ha; 0 to 100 scale where 0 is no effect and 100 is complete control
Procedure, shortened: as §2

large (Lg) crabgrass [9] = assay: Test A postemergence; assay type: in vivo, Digitaria sanguinalis; settings: 0 to 100 scale where 0 is no effect and 100 is complete control; for Crabgrass, Large plant response rating: 125 g ai/ha; for Plant response rating, Crabgrass, Large: 500 g ai/ha
Procedure, shortened: as §1

wheat [10] = assay: Test A preemergence; assay type: in vivo, Triticum aestivum; settings: for Wheat plant response rating (0 to 100 scale): 125 g ai/ha; for Wheat plant response rating: 500 g ai/ha, 0 to 100 scale where 0 is no effect and 100 is complete control
Procedure, shortened: as §1

pigweed [11] = assay: Test A postemergence; assay type: in vivo, Amaranthus retroflexus; settings: 0 to 100 scale where 0 is no effect and 100 is complete control; for Pigweed plant response rating: 125 g ai/ha; for Plant response rating, Pigweed: 500 g ai/ha
Procedure, shortened: as §1

barnyardgrass [12] = assay: Test A preemergence; assay type: in vivo, Echinochloa crus-galli; settings: for Barnyardgrass plant response rating (0 to 100 scale, 0 is no effect, 100 is complete control): 125 g ai/ha; for Barnyardgrass plant response rating: 500 g ai/ha, 0 to 100 scale where 0 is no effect and 100 is complete control
Procedure, shortened: as §1

corn [13] = assay: Test A preemergence; assay type: in vivo, Zea mays; settings: for Corn plant response rating (0 to 100 scale): 125 g ai/ha; for Corn plant response rating: 500 g ai/ha, 0 to 100 scale where 0 is no effect and 100 is complete control
Procedure, shortened: as §1

corn [14] = assay: Test A postemergence; assay type: in vivo, Zea mays; settings: 0 to 100 scale where 0 is no effect and 100 is complete control; for Corn plant response rating: 125 g ai/ha; for Plant response rating, Corn: 500 g ai/ha
Procedure, shortened: as §1

pigweed [15] = assay: Test A preemergence; assay type: in vivo, Amaranthus retroflexus; settings: for Pigweed plant response rating (0 to 100 scale): 125 g ai/ha; for Pigweed plant response rating: 500 g ai/ha, 0 to 100 scale where 0 is no effect and 100 is complete control
Procedure, shortened: as §1

barnyardgrass [16] = assay: Test B flooded paddy test; assay type: in vivo, Echinochloa crus-galli; settings: Flood, 250 g ai/ha; 0 to 100 scale where 0 is no effect and 100 is complete control
Procedure, shortened: as §2

large (Lg) crabgrass [17] = assay: Test A preemergence; assay type: in vivo, Digitaria sanguinalis; settings: for Crabgrass, Large plant response rating (0 to 100 scale): 125 g ai/ha; for Crabgrass, Large plant response rating: 500 g ai/ha, 0 to 100 scale where 0 is no effect and 100 is complete control
Procedure, shortened: as §1

Structure (SMILES)	Foxtail, Giant plant response rating (giant foxtail [1])	Plant response rating, Foxtail, Giant (giant foxtail [1])	Morningglory plant response rating (morningglory [2])	Plant response rating, Morningglory (morningglory [2])	Wheat plant response rating (wheat [3])	Plant response rating, Wheat (wheat [3])	Barnyardgrass plant response rating (barnyardgrass [4])	Plant response rating, Barnyardgrass (barnyardgrass [4])	Velvetleaf plant response rating (velvetleaf [5])	Plant response rating, Velvetleaf (velvetleaf [5])	Plant response rating, Sedge, Umbrella (sedge, umbrella)	Plant response rating, Ducksalad (Heteranthera limosa)	Foxtail, Giant plant response rating (0 to 100 scale) (giant foxtail [6])	Foxtail, Giant plant response rating (giant foxtail [6])	Velvetleaf plant response rating (0 to 100 scale) (velvetleaf [7])	Velvetleaf plant response rating (velvetleaf [7])	Morningglory plant response rating (0 to 100 scale) (morningglory [8])	Morningglory plant response rating (morningglory [8])	Plant response rating, Rice (rice)	Crabgrass, Large plant response rating (large (Lg) crabgrass [9])	other results
N#Cc1cnc(Oc2ccccc2-n2cccn2)nc1 [Compound 226]	0	0	0	0	0	0	0	0	0	10	0	0	0	0	0	0	0	0	0	0	Plant response rating, Crabgrass, Large (large (Lg) crabgrass [9]): 0; Wheat plant response rating (0 to 100 scale) (wheat [10]): 0; Wheat plant response rating (wheat [10]): 0; Pigweed plant response rating (pigweed [11]): 0; Plant response rating, Pigweed (pigweed [11]): 10; Barnyardgrass plant response rating (0 to 100 scale, 0 is no effect, 100 is complete control) (barnyardgrass [12]): 0; Barnyardgrass plant response rating (barnyardgrass [12]): 0; Corn plant response rating (0 to 100 scale) (corn [13]): 0; Corn plant response rating (corn [13]): 0; Corn plant response rating (corn [14]): 0; Plant response rating, Corn (corn [14]): 0; Pigweed plant response rating (0 to 100 scale) (pigweed [15]): 0; Pigweed plant response rating (pigweed [15]): 0; Plant response rating, Barnyardgrass (barnyardgrass [16]): 0; Crabgrass, Large plant response rating (0 to 100 scale) (large (Lg) crabgrass [17]): 0; Crabgrass, Large plant response rating (large (Lg) crabgrass [17]): 0
COc1cnc(Oc2ccccc2-n2cccn2)nc1 [Compound 227]	0	10	0	10	0	0	0	0	50	90	0	0	0	10	10	20	0	0	0	0	Plant response rating, Crabgrass, Large (large (Lg) crabgrass [9]): 10; Wheat plant response rating (0 to 100 scale) (wheat [10]): 0; Wheat plant response rating (wheat [10]): 0; Pigweed plant response rating (pigweed [11]): 10; Plant response rating, Pigweed (pigweed [11]): 60; Barnyardgrass plant response rating (0 to 100 scale, 0 is no effect, 100 is complete control) (barnyardgrass [12]): 0; Barnyardgrass plant response rating (barnyardgrass [12]): 0; Corn plant response rating (0 to 100 scale) (corn [13]): 0; Corn plant response rating (corn [13]): 0; Corn plant response rating (corn [14]): 0; Plant response rating, Corn (corn [14]): 0; Pigweed plant response rating (0 to 100 scale) (pigweed [15]): 10; Pigweed plant response rating (pigweed [15]): 60; Plant response rating, Barnyardgrass (barnyardgrass [16]): 0; Crabgrass, Large plant response rating (0 to 100 scale) (large (Lg) crabgrass [17]): 0; Crabgrass, Large plant response rating (large (Lg) crabgrass [17]): 10
O=Cc1cccc(Oc2ncc(Br)cn2)c1-n1cc(Br)cn1 [Compound 230]	0	20	0	0	0	0	0	20	0	30	50	20	0	0	0	0	0	0	35	0	Plant response rating, Crabgrass, Large (large (Lg) crabgrass [9]): 10; Wheat plant response rating (0 to 100 scale) (wheat [10]): 0; Wheat plant response rating (wheat [10]): 0; Pigweed plant response rating (pigweed [11]): 30; Plant response rating, Pigweed (pigweed [11]): 60; Barnyardgrass plant response rating (0 to 100 scale, 0 is no effect, 100 is complete control) (barnyardgrass [12]): 0; Barnyardgrass plant response rating (barnyardgrass [12]): 0; Corn plant response rating (0 to 100 scale) (corn [13]): 0; Corn plant response rating (corn [13]): 0; Corn plant response rating (corn [14]): 0; Plant response rating, Corn (corn [14]): 0; Pigweed plant response rating (0 to 100 scale) (pigweed [15]): 0; Pigweed plant response rating (pigweed [15]): 70; Plant response rating, Barnyardgrass (barnyardgrass [16]): 20; Crabgrass, Large plant response rating (0 to 100 scale) (large (Lg) crabgrass [17]): 0; Crabgrass, Large plant response rating (large (Lg) crabgrass [17]): 0
N#Cc1cnc(Oc2ccccc2-n2cc(Br)cn2)nc1 [Compound 233]	0	20	0	0	0	0	0	20	0	30	50	50	0	0	0	0	0	0	20	0	Plant response rating, Crabgrass, Large (large (Lg) crabgrass [9]): 10; Wheat plant response rating (0 to 100 scale) (wheat [10]): 0; Wheat plant response rating (wheat [10]): 0; Pigweed plant response rating (pigweed [11]): 20; Plant response rating, Pigweed (pigweed [11]): 50; Barnyardgrass plant response rating (0 to 100 scale, 0 is no effect, 100 is complete control) (barnyardgrass [12]): 0; Barnyardgrass plant response rating (barnyardgrass [12]): 0; Corn plant response rating (0 to 100 scale) (corn [13]): 0; Corn plant response rating (corn [13]): 0; Corn plant response rating (corn [14]): 0; Plant response rating, Corn (corn [14]): 0; Pigweed plant response rating (0 to 100 scale) (pigweed [15]): 0; Pigweed plant response rating (pigweed [15]): 20; Plant response rating, Barnyardgrass (barnyardgrass [16]): 10; Crabgrass, Large plant response rating (0 to 100 scale) (large (Lg) crabgrass [17]): 0; Crabgrass, Large plant response rating (large (Lg) crabgrass [17]): 10
N#Cc1cc(F)cc(Oc2ncc(Cl)cn2)c1-n1cc(Br)cn1 [Compound 238]	60	90	40	60	0	60	40	100	60	100	90	70	100	100	70	90	10	100	0	60	Plant response rating, Crabgrass, Large (large (Lg) crabgrass [9]): 90; Wheat plant response rating (0 to 100 scale) (wheat [10]): 0; Wheat plant response rating (wheat [10]): 30; Pigweed plant response rating (pigweed [11]): 100; Plant response rating, Pigweed (pigweed [11]): 100; Barnyardgrass plant response rating (0 to 100 scale, 0 is no effect, 100 is complete control) (barnyardgrass [12]): 70; Barnyardgrass plant response rating (barnyardgrass [12]): 100; Corn plant response rating (0 to 100 scale) (corn [13]): 0; Corn plant response rating (corn [13]): 90; Corn plant response rating (corn [14]): 0; Plant response rating, Corn (corn [14]): 80; Pigweed plant response rating (0 to 100 scale) (pigweed [15]): 100; Pigweed plant response rating (pigweed [15]): 100; Plant response rating, Barnyardgrass (barnyardgrass [16]): 0; Crabgrass, Large plant response rating (0 to 100 scale) (large (Lg) crabgrass [17]): 100; Crabgrass, Large plant response rating (large (Lg) crabgrass [17]): 100
